# Data reported in PMC5309242, “Substrate-Dependence of Competitive Nucleotide Pyrophosphatase/Phosphodiesterase1 (NPP1) Inhibitors” (Frontiers in Pharmacology, 2017).
# Like-named read-outs stand apart in the source and are kept apart here. Marks after values point to notes of the source that are not given here.
# T1: human NPP1 (Homo sapiens, UniProt P22413)
# T1 construct: Human recombinant soluble NPP1 (Val191—Leu591) expressed in murine myeloma NS0 cells; His-tag (N); purchased R&D Systems GmbH (Wiesbaden, Germany); host or cells: murine myeloma NS0 cells
# T1 sequence (P22413 191-591): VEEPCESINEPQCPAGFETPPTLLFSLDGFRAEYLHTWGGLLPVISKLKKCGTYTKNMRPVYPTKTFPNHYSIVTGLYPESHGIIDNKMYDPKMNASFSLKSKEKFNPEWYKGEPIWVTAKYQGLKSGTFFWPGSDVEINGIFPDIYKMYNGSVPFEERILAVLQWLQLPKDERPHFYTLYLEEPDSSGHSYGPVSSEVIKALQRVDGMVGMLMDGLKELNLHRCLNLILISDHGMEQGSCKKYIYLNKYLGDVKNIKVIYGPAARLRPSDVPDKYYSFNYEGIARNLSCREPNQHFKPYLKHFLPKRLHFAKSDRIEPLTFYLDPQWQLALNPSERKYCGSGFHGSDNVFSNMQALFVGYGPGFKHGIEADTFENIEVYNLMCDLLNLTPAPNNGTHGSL
# B1: human NPP1 (Homo sapiens) (protein)
# chain: T1 sequence (P22413 191-591)
# notes: Human recombinant soluble NPP1 (Val191—Leu591) expressed in murine myeloma NS0 cells; His-tag (N); purchased R&D Systems GmbH (Wiesbaden, Germany); host or cells: murine myeloma NS0 cells
# Columns and labels:
# human NPP1 [1] = molecular target: T1, human NPP1; assay: NPP1 inhibition vs. new artificial substrate p-Nph-5′-AMP (p-nitrophenolate at 400 nm); type: biochemical
# Description: (§2) For testing vs. both synthetic substrates, p-Nph-5′-TMP and p-Nph-5′-AMP, solutions containing different concentrations of each inhibitor were prepared with 10 mM CHES buffer (See Section Determination of Kinetic Parameters of Artificial Substrates) containing 400 μM p-Nph-5′-TMP, or p-Nph-5′-AMP, respectively, in a final volume of 100 μl. […] Therefore, measurements were not performed colorimetrically, but by capillary electrophoresis (CE) with DAD detection of the formed p-nitrophenolate at 400 nm. The CE instrumentation and operation conditions were as follows: The CE instrumentation and operating conditions were as follows: P/ACE MDQ capillary electrophoresis system (Beckman Instruments, Fullerton, CA, USA) with a DAD detection system, polyacrylamide-coated capillaries of 50 cm effective length × 50 μm (id) obtained from CS Chromatographie GmbH (Langerwehe, Germany), 100 mM phosphate buffer (pH 6.5) as running buffer, electrokinetic injection (−6 kV, 60 s), separation voltage of −20 kV. The measurement was performed twice in three different experiments. Data collection and peak area analysis were performed by the 32 Karat software obtained from Beckman Coulter (Fullerton, CA, USA). The IC50-values of test compounds for each substrate were calculated by plotting of three independent experiments using the program Prism 5.0 (GraphPad software, San Diego, CA, USA).
# (§3) The instrumentations and operation conditions for the experiments were the same as those described in the Sections Determination of Kinetic Parameters of Artificial Substrates and Determination of Concentration-Dependent Inhibition Curves. Each analysis was performed in three separate experiments. The inhibition type of each inhibitor was then evaluated graphically from the Hanes-Woolf plots. For the determination of the (α)Ki-values the slope of the reciprocal lines from the Hanes-Woolf plot were plotted as a function of inhibitor concentrations using Prism 5.0.
# human NPP1 [2] = molecular target: T1, human NPP1; assay: Inhibition constants and mechanism of inhibition (Hanes-Woolf plots) compared across all investigated substrates; type: biochemical; conditions: for Inhibition type: Hanes-Woolf plots, same type vs. all three substrates (ATP, p-Nph-5′-TMP, p-Nph-5′-AMP)
# Description: as §3
# human NPP1 [3] = molecular target: T1, human NPP1; parameters: method as in Chang et al., 2014; conditions: more potent vs. p-Nph-5′-TMP than vs. ATP; ref Chang et al., 2014; cited from earlier work
# human NPP1 [4] = molecular target: T1, human NPP1; parameters: method as in Namasivayam et al., 2017; conditions: substrate of NPP1; ref Namasivayam et al., 2017; cited from earlier work
# human NPP1 [5] = molecular target: T1, human NPP1; assay: Enzyme kinetic parameters of NPP1 substrates; type: biochemical; conditions: for kcat: substrate of human NPP1, pH 9.0, 37°C
# Description: (§1) Enzyme kinetic parameters were measured for p-Nph-5′-TMP and p-Nph-5′-AMP, both being artificial substrates of human NPP1. Solutions with different concentrations of both substrates (ranging from 1.0 to 500 μM) were prepared in 10 mM CHES buffer (in mM: 1 MgCl2, 2 CaCl2, 10 CHES, pH 9.0) and added in a final volume of 100 μl to 96-well-plates. The enzyme reactions were initiated by the addition of 20 ng of human NPP1 (for p-Nph-5′-TMP), or 75 ng of human NPP1 (for p-Nph-5′-AMP). The mixture was incubated at 37°C for 15 min (p-Nph-5′-TMP), or 30 min (for p-Nph-5′-AMP), respectively, and subsequently terminated by the addition of 20 μl of 1.0 N aqueous NaOH solution. The amounts of p-nitrophenolate liberated were measured at 400 nm. Each analysis was repeated twice in three separate experiments.
# human NPP1 [6] = molecular target: T1, human NPP1; assay: NPP1 inhibition vs. natural substrate ATP (CE, AMP quantified by UV at 260 nm); type: biochemical
# Description: Human recombinant soluble NPP1 (Val191—Leu591) expressed in murine myeloma NS0 cells was purchased from R&D Systems GmbH (Wiesbaden, Germany, purity > 95%, purified by using N-terminal His-tag).
# For the natural substrate ATP, the enzyme inhibition assays were performed in 10 mM CHES buffer containing 400 μM of substrate along with different inhibitor concentrations. Incubation and operation conditions were the same as described above with artificial substrates. The analysis was performed by CE and the amounts of AMP produced were quantified by their UV absorption at 260 nm. Each analysis was repeated twice in three separate experiments.
# Each analysis was performed in three separate experiments. The inhibition type of each inhibitor was then evaluated graphically from the Hanes-Woolf plots. For the determination of the (α)Ki-values the slope of the reciprocal lines from the Hanes-Woolf plot were plotted as a function of inhibitor concentrations using Prism 5.0.
# human NPP1 [7] = molecular target: T1, human NPP1; assay: NPP1 inhibition vs. artificial substrate p-Nph-5′-TMP (p-nitrophenolate at 400 nm); type: biochemical
# Description: as §2, §3
# NPP1 = conditions: cited from earlier work; for Ki: vs. ATP as a substrate, ref Iqbal et al., 2008
# human NPP1 [8] = molecular target: T1, human NPP1; conditions: read-out: Ki, ATP; substrate ATP; mean ± SEM; ref Lee et al., 2015; cited from earlier work
# human NPP1 [9] = molecular target: T1, human NPP1; parameters: method as in Lee and Müller, 2014; conditions: ref Lee and Müller, 2014; cited from earlier work
# [10] = substrate: Cc1cn([C@H]2C[C@H](O)[C@@H](COP(=O)(O)Oc3ccc([N+](=O)[O-])cc3)O2)c(=O)[nH]c1=O; assay: Enzyme kinetic parameters of NPP1 substrates; type: biochemical; conditions: other: substrate of human NPP1, pH 9.0, 37°C
# Description: as §1
# [11] = substrate: Nc1ncnc2c1ncn2[C@@H]1O[C@H](COP(=O)(O)Oc2ccc([N+](=O)[O-])cc2)[C@@H](O)[C@H]1O; assay: Enzyme kinetic parameters of NPP1 substrates; type: biochemical; conditions: other: substrate of human NPP1, pH 9.0, 37°C
# Description: as §1
# [12] = substrate p-Nph-5′-AMP, mean ± SD of three independent experiments, read-out: Ki ± SD, p-Nph-5′-AMP
# [13] = substrate p-Nph-5′-TMP, mean ± SD of three independent experiments, read-out: Ki ± SD, p-Nph-5′-TMP
molecule,measurement,setting,value
"COc1ccc(NC(=O)CSc2nc3c(N)ncnc3[nH]2)cc1OC [PZB08513136A, 2-(6-Amino-9H-purin-8-ylthio)-N-(3,4-dimethoxyphenyl)acetamide]",Ki,human NPP1 [1]; [12],14.9 ± 0.8 µM
same,Inhibition type,human NPP1 [2],Competitive
same,"fold difference in potency, p-Nph-5′-TMP vs. ATP as substrate",human NPP1 [3],more than 100 fold
"Nc1ncnc2c1ncn2[C@@H]1O[C@H](COP(=O)(O)OP(=O)(O)OP(=O)(O)O)[C@@H](O)[C@H]1O [ATP, adenosine 5′-triphosphate]",kcat,human NPP1 [4],5.51 s⁻¹
"Nc1ncnc2c1ncn2[C@@H]1O[C@H](COP(=O)(O)Oc2ccc([N+](=O)[O-])cc2)[C@@H](O)[C@H]1O [p-Nph-5′-AMP, p-nitrophenyl 5′-adenosine monophosphate]",Km-value fold higher than that for ATP,human NPP1 [5]; compared to natural substrate ATP,> 20 fold
same,kcat,human NPP1 [5],2.51 s⁻¹
"CSc1nc(N)c2ncn([C@@H]3O[C@H](COP(=O)(O)OP(=O)(O)O)[C@@H](O)[C@H]3O)c2n1 [2-MeSADP, 2-methylthio-adenosine 5′-diphosphate]",Ki,human NPP1 [6],32.8 ± 7 µM
same,Ki,human NPP1 [1]; [12],35.4 ± 6.4 µM
same,Ki,human NPP1 [7]; [13],2.18 ± 0.29 µM
same,Inhibition type,human NPP1 [2],Competitive
"COc1cc2ncnc(N3CCC(CCNS(N)(=O)=O)CC3)c2cc1OC [SAR 03004, N-[2-[1-(6,7-Dimethoxyquinazolin-4-yl)piperidin-4-yl]ethyl]sulfuric diamide]",Inhibition type,human NPP1 [2],Competitive
"Nc1ncnc2c1ncn2[C@@H]1O[C@H](COP(=O)(O)CP(=O)(O)O)[C@@H](O)[C@H]1O [α,β-metADP, adenosine 5′-(α,β-methylene)diphosphate]",Ki,human NPP1 [6],16.5 ± 3.1 µM
same,Ki,human NPP1 [1],25.8 ± 4.1 µM
same,Ki,human NPP1 [7],1.28 ± 0.16 µM
same,Inhibition type,human NPP1 [2],Competitive
"Nc1ncnc2c1ncn2[C@@H]1O[C@H](COP(=O)(O)CP(=O)(O)OP(=O)(O)O)[C@@H](O)[C@H]1O [α,β-metATP, adenosine 5′-(α,β-methylene)triphosphate]",Inhibition type,human NPP1 [2],Competitive
Nc1c(S(=O)(=O)O)cc(Nc2ccc(Nc3nc(Cl)nc(Nc4cccc(S(=O)(=O)O)c4)n3)c(S(=O)(=O)O)c2)c2c1C(=O)c1ccccc1C2=O [reactive blue 2],Ki,human NPP1 [6],0.141 ± 0.031 µM
same,Ki,human NPP1 [1],0.176 ± 0.025 µM
same,Ki,human NPP1 [7],0.198 ± 0.034 µM
same,Inhibition type,human NPP1 [2],Non-competitive
same,Ki,NPP1,0.52 µM
"CSc1nc(N)c2ncn([C@@H]3O[C@H](COP(=O)(O)OP(=O)(O)OP(=O)(O)O)[C@@H](O)[C@H]3O)c2n1 [2-MeSATP, 2-methylthio-adenosine 5′-triphosphate]",Ki,human NPP1 [6],25.3 ± 5.9 µM
same,Ki,human NPP1 [1]; [12],39.9 ± 6.9 µM
same,Ki,human NPP1 [7]; [13],4.47 ± 0.66 µM
same,Inhibition type,human NPP1 [2],Competitive
[TiW11CoO40]^8−,Ki,human NPP1 [1]; [12],0.00174 ± 0.00099 µM
same,Ki,human NPP1 [7]; [13],0.00199 ± 0.00033 µM
same,Inhibition type,human NPP1 [2],Non-competitive
same,Ki,human NPP1 [8],0.00146 ± 1e-05 µM
"Nc1ncnc2c1ncn2[C@@H](C=O)O[C@@H](C=O)COP(=O)(O)OP(=O)(O)O [dialADP, Adenosine 5′-diphosphate-2′,3′-dialdehyde]",Ki,human NPP1 [6],5.62 ± 1.23 µM
same,manner of NPP1 inhibition,human NPP1 [9],non-competitive
same,Ki,human NPP1 [1]; [12],5.09 ± 1.72 µM
same,Ki,human NPP1 [7]; [13],5.03 ± 0.15 µM
same,Ki,human NPP1 [2],~5 µM
same,Inhibition type,human NPP1 [2],Non-competitive
"Cc1cn([C@H]2C[C@H](O)[C@@H](COP(=O)(O)Oc3ccc([N+](=O)[O-])cc3)O2)c(=O)[nH]c1=O [p-Nph-5′-TMP, p-Nitrophenyl 5′-thymidine monophosphate]",kcat-value fold higher than that for p-Nph-5′-AMP,human NPP1 [5]; compared to p-Nph-5′-AMP,~10 fold
same,kcat,human NPP1 [5],22.3 s⁻¹
"Nc1ncnc2c1ncn2[C@@H](C=O)O[C@@H](C=O)COP(=O)(O)OP(=O)(O)OP(=O)(O)O [dialATP, adenosine 5′-triphosphate-2′,3′-dialdehyde]","αKi ± SD, ATP","human NPP1 [6]; αKi-value (un-competitive inhibitor), substrate ATP, mean ± SD of three independent experiments",6.82 ± 1.01^b μM
same,manner of NPP1 inhibition,human NPP1 [9],uncompetitive
same,"αKi ± SD, p-Nph-5′-AMP","human NPP1 [1]; αKi-value (un-competitive inhibitor), substrate p-Nph-5′-AMP, mean ± SD of three independent experiments",5.08 ± 0.33^b μM
same,"αKi ± SD, p-Nph-5′-TMP","human NPP1 [7]; αKi-value (un-competitive inhibitor), substrate p-Nph-5′-TMP, mean ± SD of three independent experiments",4.09 ± 0.41^b μM
same,Ki,human NPP1 [2],~5 µM
same,Inhibition type,human NPP1 [2],Un-competitive
Cc1ccc(C(=O)Nc2ccc(S(=O)(=O)O)c3cc(S(=O)(=O)O)cc(S(=O)(=O)O)c23)cc1NC(=O)c1cccc(NC(=O)Nc2cccc(C(=O)Nc3cc(C(=O)Nc4ccc(S(=O)(=O)O)c5cc(S(=O)(=O)O)cc(S(=O)(=O)O)c45)ccc3C)c2)c1 [suramin],Ki,NPP1,0.26 µM
B1,Km,[10],222 µM
same,Km,[11],188 µM
same,kcat,[11],2.51 s⁻¹
same,kcat/Km,[11],13400 M⁻¹ s⁻¹
